Experimental data as given in US20240294478A1, “ANTI-CANCER COMPOUNDS AND METHODS OF USE” (YALE UNIVERSITY, priority 2021, published 2024).
Like-named read-outs stand apart in the source and are kept apart here.

Assays:
[1] = test system: MGMT− LN229 cells; experiment: Clonogenic survival assay, LN229 MGMT- cells; format: cell-based, human
Experimental: (§1) In vitro clonogenic survival assays (CSAs) were performed using four isogenic LN229 glioblastoma cell lines.
(§2) Clonogenic Cell Survival Assay. Cells of each line were pretreated with the test drug in culture for 48-72 hours at the specified dilutions. The cells were then immediately seeded in six-well plates in triplicate at three-fold dilutions, ranging from 9000 to 37 cells per well. Depending on colony size, these plates were kept in the incubator for 10 to 14 days. After incubation, colonies were washed in phosphate-buffered saline (PBS) and stained with crystal violet. Colonies were counted by hand. Counts were normalized to plating efficiency of the corresponding treatment condition.

[2] = test system: LN229 MGMT− shPMS2 cells; experiment: Short-term viability assay, LN229 MGMT- shPMS2; format: cell-based, human; details: for IC50: Homo sapiens, LN-229, Table III, read-out: IC50 against LN229 cell lines, MGMT− MMR−; for MGMT− RI: Table III
Experimental: The activity of KL-50 in MGMT-LN229 cells engineered to lack expression of other key MMR proteins including MSH6, MLH1, PMS2, and MSH3 was also confirmed. Western blotting was performed in LN229 MGMT+/−cells with stable expression of shRNA targeting MSH6, MLH1, PMS2, or MSH3 to confirm depletion of the shRNA targets. In shMSH6 cells, there was reduced expression of MSH2, and in shMLH1 cells, there was loss of PMS2, due to destabilization in the setting of loss of their heterodimeric partners. GAPDH serves as loading control. […] Short-term viability assay curves for KL-50 in LN229 MGMT+/−, MMR+/shMSH6 cells. […] Short-term viability assay curves for KL-50 in LN229 MGMT+/−, MMR+/shMLH1 cells. […] Short-term viability assay curves for KL-50 in LN229 MGMT+/−, MMR+/shPMS2 cells. […] Short-term viability assay curves for KL-50 in LN229 MGMT+/−, MMR+/shMSH3 cells.
MMR Protein shRNA Knockdown. pGIPZ lentiviral shRNA vectors targeting MSH2, MSH6, MLH1, PMS2, and MSH3 were purchased from Horizon Discovery (Table IV). Lentiviral particles were produced in HEK293T cells via co-transfection with lentiviral shRNA plasmid, pCMV-VSV-G envelope plasmid (Addgene, #8454) and psPAX2 packaging plasmid (Addgene, #12260), using Lipofectamine 3000 Reagent (Invitrogen, L3000001) per manufacturer's protocol. Viral particles were harvested 48 h post-transfection and used to transduce LN229 MGMT+/−cells in the presence of 8 μg/mL polybrene. Selection of pooled cells with lentiviral expression was established with 1 μg/mL puromycin 48 h post-transduction for 3 to 4 days. Single cell cloning was performed by limiting dilution and protein knockdown was confirmed by western blotting.
(§3) Short-term Cell Viability Assay. Cells were seeded in 96-well plates at 1000 or 2000 cells/well and allowed to adhere at 23° C. for 60 min and then incubated overnight at 37° C. Cells were treated with indicated concentrations of compounds in triplicate for 4-6 days prior to fixation with 3.7% paraformaldehyde and nuclear staining with 1 μg/mL Hoechst 33342 dye. Cells were imaged on a Cytation 3 imaging reader (BioTek) and quantified using CellProfiler software. For in vitro short-term growth delay experiments, IC50 values were determined from the nonlinear regression equation, [inhibitor] vs normalized response with variable slope.

[3] = test system: LN229 MGMT+/MMR+ cells; experiment: Short-term cell viability assay, LN229 MGMT+/MMR+; format: cell-based; details: Homo sapiens, read-out: IC50 against LN229 cell lines, MGMT+ MMR+
Experimental: LN229 MGMT- and MGMT+ cell lines were a gift from B. Kaina (Johannes Gutenberg University Mainz, Mainz, Germany) and grown in Gibco® Duilbecco's Modified Eagle Medium with 10% fetal bovine serum (DMEM). For each compound tested, the relationship between MGMT status and MMR status and compound activity, in terms of IC50 values ([…]), was determined by the following method. On day 1, LN229 isogenic cells of varying MGMT and MMR status were seeded in 96 well format at a density of 2000 cells/well in 100 μL of DMEM media and allowed to adhere overnight. On day 2, a drug master plate was made with 100×the desired maximal concentration of test compound and serially diluted by 2 until 100×the minimal desired concentration, with one DMSO control. Then daughter plates were created with varied concentrations from 3-times the minimal concentration to 3-times the maximal desired concentration. Afterwards, 50 μL of daughter drug plate was added to 100 μL of the seeded cells for a final concentration of 1×in triplicate. Cells were allowed to grow for 6 days. On day 7, the cells were fixed, and stained with Hoechst nuclear dye and imaged to determine growth inhibition.
For each compound tested, the relationship between MGMT status and MMR status and compound activity, in terms of IC50 values (in μM), was determined. In addition, for each compound, the therapeutic index (TI) was calculated, according to the equation MGMT TI=IC50 (MGMT+/MMR+) divided by IC50 (MGMT−/MMR+). The T1 indicates the efficacy of a compound in treating the targeted MGMT-cancer cells as compared to potential for the same compound to damage, or have adverse effects against, normal cells which are MGMT+cells, The higher the value of the TI, the safer the compound is. […] MMR RI (resistance index)=IC50 (MGMT−/MMR−) divided by IC50 (MGMT−/MMR+). The higher the value of the RI, the less likely that resistance to the compound will develop.
as §3

[4] = test system: MGMT+ LN229 cells; experiment: Clonogenic survival assay, LN229 MGMT+ cells; format: cell-based, human
Experimental: as §1, §2

**Q.** How did the “clonogenic survival, antitumor activity in MGMT− cells” value ([1]; independent of MMR status) turn out when NC(=O)c1ncn2c(=O)n(CCF)nnc12 [KL-50] was run?
**A.** robust antitumor activity

**Q.** What about the IC50 [2] of the same molecule?
**A.** 5.4 ± 0.3 µM

**Q.** What about the “MGMT− RI” value [2] of the same molecule?
**A.** 0.4

**Q.** What about the IC50 ([3]; LN-229, Table III, shRNA None) of the same molecule?
**A.** 285 ± 46 µM

**Q.** What about the IC50 ([3]; LN-229, Table II) of the same molecule?
**A.** 587 ± 166 µM

**Q.** What about the “clonogenic survival, toxicity to MGMT+ cells” value ([4]; at doses up to at least 200 μM) of the same molecule?
**A.** minimal toxicity

**Q.** What does the source list for Cn1nnc2c(C(N)=O)ncn2c1=O [TMZ, 4-methyl-5-oxo-2,3,4,6,8-pentazabicyclo[4.3.0]nona-2,7,9-triene-9-carboxamide, reference compound]?
**A.** clonogenic survival, activity in MGMT−, MMR+ cells [1]: robust tumor cell killing; clonogenic survival, activity in MMR− cells ([1]; isogenic cells lacking MMR): abolished; IC50 [2]: 921 ± 190 µM; MGMT− RI [2]: 181; IC50 ([3]; LN-229, 144 h, Table 1, 6 days growth, Hoechst nuclear count): > 100 µM; IC50 ([3]; LN-229, Table III, shRNA None): 697 ± 60 µM; IC50 ([3]; LN-229, Table II): 742 ± 468 µM; clonogenic survival, activity in MGMT+ cells ([4]; irrespective of MMR status): negligible activity
